Source: the supplement of paper PMC13380429
± gives the standard deviation of the averaged measurements.

How the values were obtained:
Conditions in all cases: 72 h
Calu-3 [1] = assay: cell viability relative to DMSO; higher = less toxic
U2OS [2] = assay: as above
Vero E6 [3] = assay: as above
HepG2 [4] = assay: as above
Caco-2 [5] = assay: as above
Calu-3 [6] = assay: drug sensitivity score (DSS) for viability; higher = more toxic; extreme values may be limits of the assay
U2OS [7] = assay: as above
Vero E6 [8] = assay: as above
HepG2 [9] = assay: as above
Caco-2 [10] = assay: as above
Calu-3 [11] = assay: relative viability EC50 (midpoint between 100% and the lowest measured viability); higher = less toxic
U2OS [12] = assay: as above
Vero E6 [13] = assay: as above
HepG2 [14] = assay: as above
Caco-2 [15] = assay: as above

| SMILES | cell viability (Calu-3 [1]; 1 nM) [%] | cell viability (Calu-3 [1]; 10 nM) [%] | cell viability (Calu-3 [1]; 100 nM) [%] | cell viability (Calu-3 [1]; 1000 nM) [%] | cell viability (Calu-3 [1]; 10000 nM) [%] | cell viability (U2OS [2]; 1 nM) [%] | cell viability (U2OS [2]; 10 nM) [%] | cell viability (U2OS [2]; 100 nM) [%] | cell viability (U2OS [2]; 1000 nM) [%] | cell viability (U2OS [2]; 10000 nM) [%] | cell viability (Vero E6 [3]; 1 nM) [%] | cell viability (Vero E6 [3]; 10 nM) [%] | cell viability (Vero E6 [3]; 100 nM) [%] | cell viability (Vero E6 [3]; 1000 nM) [%] | cell viability (Vero E6 [3]; 10000 nM) [%] | cell viability (HepG2 [4]; 1 nM) [%] | cell viability (HepG2 [4]; 10 nM) [%] | cell viability (HepG2 [4]; 100 nM) [%] | cell viability (HepG2 [4]; 1000 nM) [%] | cell viability (HepG2 [4]; 10000 nM) [%] | cell viability (Caco-2 [5]; 1 nM) [%] | cell viability (Caco-2 [5]; 10 nM) [%] | cell viability (Caco-2 [5]; 100 nM) [%] | cell viability (Caco-2 [5]; 1000 nM) [%] | cell viability (Caco-2 [5]; 10000 nM) [%] | drug sensitivity score (Calu-3 [6]) | drug sensitivity score (U2OS [7]) | drug sensitivity score (Vero E6 [8]) | drug sensitivity score (HepG2 [9]) | drug sensitivity score (Caco-2 [10]) | relative viability EC50 (Calu-3 [11]) [µM] | relative viability EC50 (U2OS [12]) [µM] | relative viability EC50 (Vero E6 [13]) [µM] | relative viability EC50 (HepG2 [14]) [µM] | relative viability EC50 (Caco-2 [15]) [µM] |
| --- | --- | --- | --- | --- | --- | --- | --- | --- | --- | --- | --- | --- | --- | --- | --- | --- | --- | --- | --- | --- | --- | --- | --- | --- | --- | --- | --- | --- | --- | --- | --- | --- | --- | --- | --- |
| CO[C@@H]1[C@H](O)[C@@H](CO)O[C@H]1n1cnc2c(NC3CCCCC3)ncnc21 [SDZ-WAG-994] | 88.5 | 89.5 | 83.3 | 88.3 | 109 | 93.6 | 100 | 97 | 103 | 108 | 99.5 | 94.7 | 97.1 | 95.2 | 109 | 88 | 93.4 | 104 | 93 | 101 | 84.7 | 95.4 | 90 | 103 | 99.5 | 0 | 0 | 0 | 0 | 0 | > 10 | > 10 | > 10 | > 10 | > 10 |
| Cc1ccc(S(=O)(=O)OCC(=O)Nc2ccc(C(=O)O)c(O)c2)cc1 [STAT3-inhibitor-VI] | 102 | 95.1 | 102 | 96.2 | 101 | 103 | 96 | 101 | 104 | 99 | 98.3 | 97.6 | 94.1 | 98.9 | 89.8 | 102 | 104 | 96.2 | 92.1 | 95.6 | 101 | 93.1 | 90.6 | 90.8 | 99.9 | 0 | 0 | 0 | 0 | 0 | > 10 | > 10 | > 10 | > 10 | > 10 |
| N#Cc1ccc(N(Cc2ccc(Br)cc2)n2cnnc2)cc1 [YM-511] | 95.9 | 97.8 | 92.4 | 97.4 | 99.3 | 104 | 96.4 | 103 | 98.4 | 101 | 103 | 98 | 100 | 106 | 96.6 | 104 | 102 | 99.8 | 96.6 | 98 | 108 | 92 | 94.1 | 92 | 88.3 | 0 | 0 | 0 | 0 | 0.2 | > 10 | > 10 | > 10 | > 10 | > 10 |
| CCc1cc2c(c(CC)n1)CCC(=O)N2Cc1ccc(-c2ccccc2-c2nnn[nH]2)cc1 [ZD-7155] | 111 | 99.8 | 97 | 95.3 | 94.7 | 96.2 | 97.4 | 102 | 99.3 | 101 | 92.5 | 96.2 | 91.6 | 97.1 | 102 | 86.1 | 97.8 | 91.1 | 99.6 | 102 | 97.5 | 86.9 | 91.5 | 96.8 | 109 | 0 | 0 | 0 | 0 | 0 | > 10 | > 10 | > 10 | > 10 | > 10 |
| CCN(c1ccccc1)c1cc(=NC)n(C)c(C)n1 [ZD-7288] | 106 | 101 | 91.8 | 103 | 96.9 | 97.4 | 97.6 | 103 | 98.7 | 96 | 108 | 103 | 99.3 | 102 | 99 | 98.1 | 109 | 99.4 | 102 | 93.5 | 103 | 102 | 113 | 101 | 97.3 | 0 | 0 | 0 | 0 | 0 | > 10 | > 10 | > 10 | > 10 | > 10 |
| CC(=O)NCCCCCC(=O)O [acexamic-acid] | 98.9 | 89.2 | 94.9 | 114 | 102 | 96.8 | 104 | 96.3 | 104 | 100 | 99.4 | 99.1 | 101 | 99.3 | 102 | 93 | 105 | 99.1 | 93.7 | 107 | 108 | 99.2 | 98.3 | 108 | 103 | 0 | 0 | 0 | 0 | 0 | > 10 | > 10 | > 10 | > 10 | > 10 |
| CC(C)(C)NCC(O)c1ccc(O)c(CO)c1 (stereo not given) [albuterol] | 98.2 ± 3.3 | 97.2 ± 3.8 | 96.2 ± 6.6 | 103 ± 6 | 103 ± 9.1 | 101 ± 2.5 | 98.5 ± 4 | 97 ± 2.5 | 97.6 ± 3.7 | 96.2 ± 2.9 | 106 ± 2.5 | 94.8 ± 5.2 | 99.5 ± 3 | 97.8 ± 0.42 | 101 ± 3.8 | 108 ± 2.9 | 96.1 ± 2.7 | 98.5 ± 15 | 100 ± 14 | 91.6 ± 11 | 101 ± 2 | 101 ± 14 | 90.9 ± 2.3 | 96.3 ± 1.5 | 102 ± 7.1 | 0 | 0 | 0 | 0.55 ± 0.78 | 0 | > 10 | > 10 | > 10 | > 10 | > 10 |
| Nc1ccc(C(=O)O)c(O)c1 [aminosalicylate] | 96.5 | 101 | 107 | 98.9 | 99.3 | 92.5 | 101 | 96.4 | 104 | 93.8 | 95.5 | 98.5 | 104 | 104 | 95.3 | 92.6 | 102 | 99.7 | 81.1 | 102 | 95.7 | 115 | 105 | 116 | 104 | 0 | 0 | 0 | 0 | 0 | > 10 | > 10 | > 10 | > 10 | > 10 |
| Clc1ccc([C@]23CNC[C@H]2C3)cc1Cl [amitifadine] | 106 | 90.7 | 101 | 105 | 97.9 | 100 | 97.6 | 103 | 98.4 | 104 | 101 | 105 | 100 | 103 | 99 | 89.5 | 104 | 98.2 | 98.6 | 94.9 | 99.2 | 92 | 103 | 87.3 | 95.8 | 0 | 0 | 0 | 0 | 0 | > 10 | > 10 | > 10 | > 10 | > 10 |
| CCOc1cc([C@@H](CS(C)(=O)=O)N2C(=O)c3cccc(NC(C)=O)c3C2=O)ccc1OC [apremilast] | 102 | 108 | 89.8 | 99.9 | 108 | 93.1 | 101 | 97.8 | 92.7 | 99.1 | 104 | 104 | 98.7 | 99.6 | 99.6 | 102 | 95 | 101 | 84.1 | 100 | 93.4 | 100 | 98.8 | 97.3 | 106 | 0 | 0 | 0 | 0 | 0 | > 10 | > 10 | > 10 | > 10 | > 10 |
| C[C@@H](O[C@H]1OCCN(Cc2n[nH]c(=O)[nH]2)[C@H]1c1ccc(F)cc1)c1cc(C(F)(F)F)cc(C(F)(F)F)c1 [aprepitant] | 90.9 | 105 | 103 | 97.7 | 97.1 | 99.5 | 103 | 95.3 | 102 | 88.4 | 97.4 | 104 | 98.8 | 103 | 103 | 102 | 103 | 106 | 109 | 95.3 | 100 | 107 | 100 | 105 | 89.2 | 0 | 0 | 0 | 0 | 0 | > 10 | > 10 | > 10 | > 10 | > 10 |
| CC1=C(/C=C/C(C)=C/C=C/C(C)=C/C=C/C=C(C)/C=C/C=C(C)/C=C/C2=C(C)C(=O)[C@@H](O)CC2(C)C)C(C)(C)C[C@H](O)C1=O [astaxanthin] | 98.9 | 97.6 | 101 | 96.4 | 99.6 | 97.8 | 104 | 100 | 93.6 | 98.4 | 102 | 96.9 | 103 | 101 | 92.1 | 84.3 | 102 | 98.9 | 102 | 107 | 103 | 109 | 84 | 84.8 | 81.9 | 0 | 0 | 0 | 0 | 3.6 | > 10 | > 10 | > 10 | > 10 | > 10 |
| O=C(Nc1nc(-c2cc(Cl)cs2)c(N2CCN(C3CCCCC3)CC2)s1)c1cnc(N2CCC(C(=O)O)CC2)c(Cl)c1 [avatrombopag] | 96.2 | 100 | 93.9 | 102 | 88.9 | 103 | 95.5 | 104 | 103 | 95.1 | 100 | 95 | 102 | 102 | 92 | 99.4 | 109 | 115 | 98 | 110 | 94.9 | 88.7 | 102 | 105 | 107 | 0 | 0 | 0 | 0 | 0 | > 10 | > 10 | > 10 | > 10 | > 10 |
